Assay results: patent US20130324555A1, “Method of use of pharmaceutical formulations for the treatment of apicomplexan diseases in animals” (priority 2012, published 2013)

Legend:
[1] = system: T. gondii TgGoatUS4 oocysts; assay: Mouse model of T. gondii oocyst infection, TgGoatUS4; type: in vivo, mice
Description: (§1) Compounds 14a and 14b were tested for efficacy against T. gondii in the oocyst stage following per oral challenge in mice. Mice were infected by oral gavage with ME49 or TgGoatUS4 oocysts. Mice were treated with either 100 mg/kg or 25 mg/kg) of test substance.
(§2) Thus, compounds 14a and 14b were tested for efficacy in a mouse model of T. gondii oocyst infection. The oocyst form of the parasite is excreted by cats and is often the form by which people and other animals become infected. This oocyst infection in mice is very virulent, and fatal. Mice were infected by oral gavage with ME49 or TgGoatUS4 oocysts. Mice were treated with either a high dose (100 mg/kg) or low dose (25 mg/kg) of 14a or 14b 1 mL suspension via oral gavage, or were not treated. […] Treatment with 14a and 14b increased survival by 1 day (Table 6, FIGS. 8 and 9).
(§3) HLA B07 transgenic mice were produced at Pharmexa-Epimmune (San Diego, Calif., USA) and bred at the University of Chicago. […]
(§4) Oocysts were obtained by feeding infected tissues of Swiss Webster mice to cats, sporulated in 2% sulfuric acid on a shaker for one week, and stored at 4° C. until used (Dubey 2010). Oocysts were counted in a disposable hemocytometer and diluted 10-fold from 10^−1 to 10^−7 to reach an end point of ≅1 oocyst. […]

[2] = system: T. gondii Me-49 oocysts; assay: Mouse model of T. gondii oocyst infection, Me-49; type: in vivo, mice
Description: as §1, §2, §3, §4

[3] = Hydrolytic stability of acylated derivatives (data not shown); type: physicochemical
Description: A cursory study of the effect of capping the phenol of 4 via acylation was undertaken. The acylated derivatives 7 were prepared and tested. […] The intrinsic activity of intact 7a cannot yet be ruled out, and this interesting phenomenon is currently under study.

For `CN(CC(=O)NN)C(=O)Oc1ccc(Cl)cc1C(=O)Nc1ccc(C(F)(F)F)cc1C(F)(F)F.Cl` [Compound 14b, 2-((2,4-bis(trifluoromethyl)phenyl)carbamoyl)-4-chlorophenyl (2-hydrazinyl-2-oxoethyl)(methyl)carbamate hydrochloride], the increase of survival ([1]; TgGoatUS4 oocysts, 100 or 25 mg/kg) was 1 days and the “survival of mice infected with T. gondii oocysts, in words” value ([1]; mouse, in vivo) was “effective at prolonging slightly the survival”.
In the case of `CN(CC(=O)NN)C(=O)Oc1ccc(Cl)cc1C(=O)Nc1ccc([N+](=O)[O-])cc1Cl.Cl` [Compound 14a, 4-chloro-2-((2-chloro-4-nitrophenyl)carbamoyl)phenyl (2-hydrazinyl-2-oxoethyl)(methyl)carbamate hydrochloride], the increase of survival ([2]; Me-49 oocysts, 100 or 25 mg/kg) is reported as 1 days and the “survival of mice infected with T. gondii oocysts, in words” value ([2]; mouse, in vivo) is reported as “effective at prolonging slightly the survival”.
In the case of `O=C(Oc1ccc(Cl)cc1C(=O)Nc1ccc([N+](=O)[O-])cc1Cl)c1ccccc1` [Compound 7a, 4-chloro-2-((2-chloro-4-nitrophenyl)carbamoyl)phenyl benzoate], the stability against hydrolysis [3] is reported as “hydrolytically labile under certain conditions”.
